Source: PMC2851491 (The Journal of infectious diseases, 2010)
Like-named read-outs stand apart in the source and are kept apart here.

How the values were obtained:
[1] = system: A/Wisconsin/67/2005 (H3N2); experiment: microbe, parasite or virus in culture; assay type: cell-based, influenza A/H3N2 virus
[2] = system: Day 0 wild-type isolate (A/Bethesda/NIH12-0/2008); experiment: microbe, parasite or virus in culture; assay type: cell-based, influenza A/H3N2 virus
[3] = system: Day 8 isolate (deletion in NA of AA 245–248); assay type: cell-based, influenza A/H3N2 virus; conditions: for IC50: read-out: Plaque Reduction Assay IC50 (95% CI)
[4] = system: Day 8 isolate (deletion in NA of AA 245–248); assay type: cell-based, influenza A/H3N2 virus; conditions: read-out: High Throughput Assay EC50 (95% CI)
[5] = system: Day 0 wild-type isolate (A/Bethesda/NIH12-0/2008); assay type: cell-based, influenza A/H3N2 virus; conditions: read-out: Plaque Reduction Assay IC50 (95% CI)
[6] = target: NA of Day 8 isolate (deletion in NA of AA 245–248) (Influenza A virus, UniProt D3XBZ2, DEL245-248); experiment: biochemical; assay type: biochemical, influenza A/H3N2 virus
[7] = target: NA of Day 0 wild-type isolate (A/Bethesda/NIH12-0/2008) (Influenza A virus, UniProt D3XBZ2); assay type: biochemical, influenza A/H3N2 virus; conditions: read-out: NA-inhibition Assay IC50 (95% CI)
[8] = read-out: High Throughput Assay EC50 (95% CI)

## NC12CC3CC(CC(C3)C1)C2 [Amantadine, amantadine]
[1]; Influenza A virus, H3N2, read-out: High Throughput Assay EC50
  EC50: > 200000 nM
[2]; Influenza A virus, in Homo sapiens, 0 h, read-out: High Throughput Assay EC50
  EC50: > 200000 nM

## CCOC(=O)C1=C[C@@H](OC(CC)CC)[C@H](NC(C)=O)[C@@H](N)C1 [Oseltamivir, oseltamivir]
[3]
  IC50: 49.7 nM
[4]
  EC50: 443 nM
[1]; [8]
  EC50: 0.37 nM
[5]
  IC50: 0.38 nM
[2]; [8]
  EC50: 0.21 nM

## CC(=O)N[C@H]1[C@H]([C@H](O)[C@H](O)CO)OC(C(=O)O)=C[C@@H]1N=C(N)N [Zanamivir, zanamivir]
[3]
  fold increase in IC50, plaque reduction assay: 14 fold
  IC50: 224 nM
[6]
  IC50: 12.7 nM
  fold increase in IC50, NA activity assay: 3 fold
  fold increase in IC50 / IC50/EC50, summary over drug sensitivity assays: 3 to 7 fold
[4]
  EC50: 131 nM
[1]; [8]
  EC50: 6.16 nM
[5]
  IC50: 15.6 nM
[7]
  IC50: 4 nM
[2]; [8]
  EC50: 18.9 nM
